Assay results: patent US20240041830A1, “CIRCULATING BIOMARKERS OF RESPONSE TO PD-1/PD-L1 BLOCKADE AND GSK-3 INHIBITION” (Brown University, priority 2022, published 2024)

Tests used:
SW480 = test: multicolor co-culture of SW480 and TALL-104 T cells; format: cell-based, human
From the text: Multicolor immune cell co-culture experiments.
Elraglusib sensitizes tumor cells to immune-mediated cytotoxicity. […] FIG. 8A. TALL-104 cells are a human leukemic T cell line.
FIG. 1A. […] FIG. 1B. […] FIG. 1C. […] FIG. 1D. […] FIG. 1E. […] FIG. 1F.

NK-92 = test: microarray analysis; format: cell-based, human; conditions: 1 μM, 24 hours, vs untreated
Experimental: Microarrays. A total of 0.5×10^6 tumor cells (HCT-116, HT-29, KM12C) were plated in a 6-well plate and allowed to adhere overnight before 24-hour treatment, as indicated. Then, 1×10^6 immune cells (NK92, TALL-104) were plated and treated with elraglusib as indicated for twenty-four h. RNA was isolated from cell pellets in batches of six using a RNeasy Plus Mini Kit (Cat #74134, Qiagen, Hilden, Germany). Acceptable RNA concentration and quality were verified with Nanodrop and Bioanalyzer measurements. GeneChip™ Human Transcriptome Array 2.0 assays were conducted according to manufacturer instructions in two batches using randomized samples to limit batch effects (Cat #902162, Applied Biosystems, Waltham, MA, USA). Applied Biosystems Transcriptomic Analysis Console (TAC) software (RRID: SCR_016519) was used to calculate fold changes in gene expression relative to the untreated control cells. Values were considered statistically significant for p values<0.05.
Microarray analysis was used to obtain insights into gene expression changes in immune cell lines post-GSK-3 inhibition with elraglusib. Immune cell lines (TALL-104, NK-92) were treated with elraglusib at IC50 concentrations or DMSO as vehicle control for twenty-four hours and treated versus untreated samples were compared in triplicate using microarray analysis. FIG. 11. Results were calculated using a fold-change (FC) cutoff of >1.5, <−1.5, and a minimum p-value of <0.05. NK-92 cells had sixty-one differentially expressed genes post-treatment (FIG. 3D). the inventors observed an increase in genes that promote immune cell proliferation (TNFSF14, RAB38) and control immune cell adhesion and migration (WNK1) post-elraglusib treatment.
TABLE 11 description. NK-92 immune cell microarray analysis. NK-92 immune cells were treated with 1 μM elraglusib for 24 hours and treated versus untreated control samples were compared in triplicate via microarray analysis (N=3).

93T449 liposarcoma = test: Luminex cytokine profiling; format: cell-based; conditions: 0.5 μM, twenty-four hours
Experimental: (§1) Human cytokine profiling. Human cell line culture supernatants were analyzed using an R&D systems Human Premixed Multi-Analyte Kit (R&D Systems, Inc., Minneapolis, MN, USA) and a Luminex 200 (RRID: SCR_018025) Instrument (LX200-XPON-RUO, Luminex Corporation, Austin, TX, USA) according to the manufacturer's instructions. Sample levels of TNF-α, 4-1BB/TNFRSF9/CD137, IL-8/CXCL8, Ferritin, IFN-β, IL-10, CCL2/JE/MCP-1, VEGF, CXCL13/BLC/BCA-1, IFN-γ, CCL20/MIP-3 α, CCL3/MIP-1 α, CCL22/MDC, CCL4/MIP-1 β, Fas Ligand/TNFSF6, IL-17/1L-17A, IL-2, BAFF/BLyS/TNFSF13B, GM-CSF, CXCLS/ENA-78, TRANCE/TNFSF11/RANK L, CXCL9/MIG, G-CSF, IFN-γ R1/CD119, VEGFR3/Flt-4, C-Reactive Protein/CRP, CXCL11/I-TAC, IL-21, CXCL14/BRAK, IL-6, Fas/TNFRSF6/CD95, TRAIL R3/TNFRSF10C, IL-4, CCL5/RANTES, PD-L1/137-H1, CCL7/MCP-3/MARC, Chitinase 3-like 1, CXCL10/IP-10/CRG-2, IL-1 μ/IL-1F2, IL-7, Prolactin, CCL8/MCP-2, TRAIL R2/TNFRSF10B, M-CSF, IL-15, Granzyme B, IFN-α, TREM-1, IL-12/1L-23 p40, TRAIL/TNFSF10, CCL11/Eotaxin, and 1L-18/1L-1F4. Quantitative analysis with 6 standards and a minimum of 50 counts per bead region was used with the Luminex to generate analyte values reported as picograms/milliliter (pg/mL). Sample concentrations less than the lower limit of detection for each particular analyte were recoded as the lower limit value divided by 10. Sample concentrations above the upper limit of detection for a particular analyte were recoded as the upper limit of detection.
(§2) Saos-2 osteosarcoma and 93T449 liposarcoma cell lines were pretreated at IC50 with elraglusib. The cells were harvested for Western blot analysis after 48 hours of treatment. Both cancer cell lines as well as TALL-104 T-cells and NK-92 NK cells were treated with 0.5 μM elraglusib for twenty-four hours and harvested for Luminex cytokine profiling.

Saos-2 osteosarcoma = test: Luminex cytokine profiling; format: cell-based; conditions: 0.5 μM, twenty-four hours
Experimental: as §1, §2

[1] = tested on: panel of human colorectal cell lines; test: Luminex 200 analysis of tumor cell culture supernatants (Example 1); format: cell-based
Experimental: as §1
A panel of human colorectal cell lines was chosen to provide a varied mutational background (TP53, KRAS, BRAF, TRK, APC, PIK3CA). Cells were treated with elraglusib at doses up to 50 μM for seventy-two hours to determine IC10, IC30, IC50, and IC70. Cytokine, chemokine, and growth factor levels were analyzed in the tumor cell culture supernatants after treatment at IC10, IC30, IC50, and IC70 for forty-eight hours using a Luminex 200 multiplexing instrument. Co-culture experiments were conducted with GFP+ SW480 colorectal cancer cells and either NK-92 natural killer cells or TALL-104 T cells at various effector/target ratios in a 48-well plate, in the presence or absence of elraglusib.

Cn1cc(C2=C(c3coc4ccc(F)cc34)C(=O)NC2=O)c2cc3c(cc21)OCO3 [elraglusib]
dead cells out of total cells (SW480; co-culture with TALL-104, 5 μM, 24 hours, E:T 1:1, normalized, without drug approximately 45%): 60%
dead cells out of total cells (SW480; co-culture with TALL-104, 10 μM, 24 hours, E:T 1:1, normalized, without drug approximately 45%): 65%
dead cells out of total cells (SW480; tumor cells pre-treated 5 μM for twenty-four hours, then co-cultured with TALL-104): 65%
ITGB8 Fold Change (NK-92): −1.53
MIR186 Fold Change (NK-92): −1.52
NAP1L1 Fold Change (NK-92): −1.51
RAB38 Fold Change (NK-92): 1.65
RNY5 Fold Change (NK-92): 3.32
S100A12 Fold Change (NK-92): −1.78
TNFSF14 Fold Change (NK-92): 1.5
WNK1 Fold Change (NK-92): 1.5
TGF-α (93T449 liposarcoma): increase
TGF-α (Saos-2 osteosarcoma): increase
IL-6 (Saos-2 osteosarcoma; only Saos-2): increase
macrophage colony-stimulating factor (M-CSF) [1]: decrease
VEGF in supernatant ([1]; IC10, IC30, IC50, IC70 for forty-eight hours): decreased
Overall cytokine levels ([1]; in response to increasing doses): decreasing trend
CXCL14 (BRAK) in supernatant ([1]; with increasing doses): increase
